What was measured:
CD300a-Ig = target: T1, CD300a-Ig (Homo sapiens, UniProt Q9UGN4); assay: ELISA on plates coated with pure lipid; SPR on L1-chip liposomes (Biacore T200); assay type: binding; settings: immobilised lipid; Fc fusion protein as analyte
T1 construct: Ig (Fc) fusion protein, Fc as tag
T1 sequence (Q9UGN4 18-180 limits assumed): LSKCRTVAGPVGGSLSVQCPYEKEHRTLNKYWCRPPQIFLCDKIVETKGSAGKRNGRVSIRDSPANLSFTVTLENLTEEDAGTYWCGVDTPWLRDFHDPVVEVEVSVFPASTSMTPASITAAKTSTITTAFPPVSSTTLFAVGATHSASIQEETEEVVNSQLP

CD300c-Ig = target: T2, CD300c-Ig (Homo sapiens, UniProt Q08708); assay: as above; assay type: binding; settings: immobilised lipid; Fc fusion protein as analyte
T2 construct: extracellular domain fused to Fc fragment of human IgG2 (Fc as tag)
T2 sequence (Q08708 21-183 limits assumed): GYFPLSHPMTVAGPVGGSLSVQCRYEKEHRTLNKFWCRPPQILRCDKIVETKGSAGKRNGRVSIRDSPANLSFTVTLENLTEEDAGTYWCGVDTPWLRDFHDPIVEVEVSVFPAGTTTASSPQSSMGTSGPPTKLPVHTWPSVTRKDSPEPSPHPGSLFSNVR

`CCCCCCCC/C=C\CCCCCCCC(=O)O[C@H](COC(=O)CCCCCCCCCCCCCCC)COP(=O)(O)OCCN` [PE, 1-palmitoyl-2-oleoyl (PO) phosphatidylethanolamine (POPE)] was tested, and the “ELISA on plates coated with pure lipid; SPR on L1-chip liposomes (Biacore T200)” value (CD300a-Ig) was “CD300a-Ig predominantly binds to PE” and the “ELISA on plates coated with pure lipid; SPR on L1-chip liposomes (Biacore T200)” value (CD300c-Ig) was “CD300c-Ig binds to both PS and PE at the same level”.
